Patent US20260069606A1, “Oxidative Stress and Diabetes Treatment with Cobinamide” (The Regents of the University of California, priority 2022, published 2026)

What was measured:
[1] = mouse, in vivo
Description: It seemed possible, therefore, that the cobinamide administered to the mice could have increased their blood pressure, since ·NO is a potent vasodilator. Because diabetes can increase blood pressure, these studies were performed on a parallel set of non-diabetic mice of the same strain and sex and using the same concentration of histidyl-cobinamide in the drinking water as in the above-described studies.

[2] = second order; literature values; cited from earlier work
[3] = literature values, cited from earlier work
[4] = second order; literature values; cited from earlier work; remark: listed apart in the source
[5] = literature values; not strictly comparable with third-order constants; cited from earlier work
[6] = tested on: H9c2 cells; assay: Mitochondrial membrane potential, JC-1 red to green fluorescence; type: cell-based, rat; conditions: H9c2, 5 μM rotenone 30 min, drugs at 2.5 μM
Description: (§1) FIGS. 3A-3H. […] FIGS. 3A-3B. […] FIG. 3A. […] FIG. 3B. […] FIGS. 3C-3D. […] FIG. 3D. […] FIGS. 3E-3F. […] FIG. 3E. Representative blots are shown. […] FIG. 3F. […] FIG. 3G. […] FIG. 3H.
(§2) The cells were then washed once with PBS, placed back in the DMEM experimental medium, and incubated with the indicated drugs for 30 min. At the end of the incubation period, nuclei of both the MitoSOX Red- and JC-1-treated cells were stained with […] 4′,6-diamidino-2-phenyl-indole (DAPI) for 3 min, washed once with PBS, and returned to the DMEM experimental medium. The cover slips were removed from the wells, mounted in the DMEM experimental medium, and red (MitoSOX Red and JC-1 aggregates), green (JC-1 monomers), and blue (DAPI) fluorescence intensity was assessed using a Keyence BZ-X700 fluorescence microscope at the following paired excitation/emission wavelengths, respectively: 560/630, 490/525, and 360/460 nm.
Increased mitochondrial O2·^− by rotenone would be expected to reduce the mitochondrial membrane potential (ΔΨm), due in part to activation of uncoupling proteins^39. […] Rotenone caused an almost complete loss of red fluorescence and a striking increase in green fluorescence in the cells, indicating a marked decrease in ΔΨm (FIGS. 3C-3D).

[7] = tested on: D. melanogaster; assay: Survival of fruit flies during paraquat poisoning; type: in vivo; conditions: 20 mM paraquat with 0.8 mM drug in food, over 7 d
Description: The number of live flies was counted each day for 7 d. The experiment was repeated seven times, for a total of 70 flies per condition. The percent surviving flies was calculated; error bars represent standard deviations and are shown in one direction only for sake of clarity. […] Chi, cobinamide in Panel A and histidyl-cobinamide in Panels B-K; Imp, imisopasem; MnTP, MnTBAP; CbL, cobalamin; DNPH, 2,4-dinitrophenylhydrazine; ND, non-diabetic; D, diabetic; Veh, vehicle.
To test cobinamide in a whole animal, D. melanogaster was selected for initial studies, and oxidative stressed was increased in the files by administering paraquat in their food. Cobinamide was again compared to imisopasem, MnTBAP, and hydroxocobalamin, all administered in food.

[8] = tested on: H9c2 rat embryonal cardiomyocytes; assay: Mitochondrial superoxide content, MitoSOX Red fluorescence; type: cell-based; conditions: H9c2, 5 μM rotenone 30 min, drugs at 2.5 μM
Description: as §1
H9c2 cells were plated on glass cover slips in 24 well dishes, and 16 h later the medium was changed to phenol red-free DMEM supplemented with 20 mM Hepes, 0.1% fetal bovine serum, and 0.5% bovine serum albumin. […] MitoSOX Red is a dihydroethidium derivative containing triphenyl-phosphonium, which localizes it to respiring mitochondria. Its reaction with O2·^− yields 2-hydroxy-mitoethidium (2-OH-Mito-E″), whereas its reaction with other oxidative species yields mitoethidium (Mito-E^+)^67. These two oxidative derivatives have overlapping fluorescence spectra, but they can be distinguished by high performance liquid chromatography (HPLC)^68. Rotenone increased 2-OH-Mito-E^+ about two-fold, without increasing Mito-E^+. Thus, any increased fluorescence observed on treating cells with rotenone could be ascribed to an increase in 2-OH-Mito-E^+, and decreased fluorescence by an anti-oxidant in rotenone-treated cells was likely from a decrease in 2-OH-Mito-E^+.
as §2
To assess if cobinamide reduces oxidative stress in cells and to compare its […] efficacy to that of cobalamin, imisopasem, and MnTBAP, several sets of experiments were performed. First, whether cobinamide reduces mitochondrial-generated O2·^− was evaluated using the fluorescent probe MitoSOX Red. H9c2 rat embryonal cardiomyocytes were treated with rotenone, an inhibitor of complex I, to increase mitochondrial O2·^−. […] Monitoring the UV-visible spectrum of cobinamide is a sensitive means to assess ligand binding^38.

[9] = tested on: COS-7 cells; conditions: COS-7, 1 mM paraquat 3 h, 100 μM drug, counted 48 h later
Description: as §1
Finally, whether cobinamide could alleviate the effects of oxidative stress induced by yet another mechanism in a different cell type was tested using paraquat-treated COS-7 cells. Paraquat generates O2·^− through a redox cycling mechanism and increases both intracellular O2·^− and H2O2^42.

[10] = tested on: Jun N-terminal kinase (JNK) phosphorylation in H9c2 cells; assay: H2O2-induced JNK phosphorylation, immunoblotting; type: cell-based, rat; conditions: H9c2, 100 μM H2O2 30 min, drugs at 100 μM
Description: as §1

Row | Molecule | Blood pressure [1] | Rate constant, reaction with superoxide (O2·^−), published [2] | Ka, binding of nitric oxide (·NO), published [3] | Oxidation in the presence of oxygen | Rate constant, reaction with peroxynitrite (ONOO^−), published [4] | Rate constant, reaction with hydrogen peroxide (H2O2), published [5] | JC-1 red to green fluorescence ratio (ΔΨm) in rotenone-treated cells [6] | Effect on mortality of paraquat-exposed flies [7] | Rate constant, reaction with nitric oxide (·NO), published ([3]; second order) | MitoSOX red fluorescence in rotenone-treated cells [8] | Effect on cell growth of paraquat-treated cells [9] | JNK phosphorylation in H2O2-treated cells [10]
1 | histidyl-cobinamide | No difference in the blood pressure | – | – | – | – | – | – | – | – | – | – | –
2 | C/C1=C2/[N-][C@H]([C@H](CC(N)=O)[C@@]2(C)CCC(=O)NC[C@H](C)OP(=O)([O-])O[C@H]2[C@@H](O)[C@@H](n3cnc4cc(C)c(C)cc43)O[C@@H]2CO)[C@]2(C)N=C(/C(C)=C3N=C(/C=C4N=C1[C@@H](CCC(N)=O)C\4(C)C)[C@@H](CCC(N)=O)[C@]\3(C)CC(N)=O)[C@@H](CCC(N)=O)[C@]2(C)CC(N)=O.[Co+2] (stereo in doubt) [Cobalamin(II)] | – | 3.8e+08 M⁻¹ s⁻¹ | Ka: 1.5 × 10^8 (51) M^−1 | rapidly oxidized back to cobalamin(III) | 3.7 × 10^5 (14) M^−1 s^−1 | 1.4 × 10^2 | – | – | – | – | – | –
3 | O=C(O)c1ccc(-c2c3nc(c(-c4ccc(C(=O)O)cc4)c4ccc([n-]4)c(-c4ccc(C(=O)O)cc4)c4nc(c(-c5ccc(C(=O)O)cc5)c5ccc2[n-]5)C=C4)C=C3)cc1.[Mn+3] [MnTBAP, manganese(III)tetrakis(4-benzoicacid)porphyrin] | – | ~4.0 M⁻¹ s⁻¹ | – | – | ~1 × 10^5 (27) M^−1 s^−1 | 5.8 | modest degrees of recovery | lesser effect | No activity (28) | reduced the fluorescent signal substantially | neither imisopasem nor MnTBAP had an effect | small non-significant effects
